Data on one compound can be found in US5830433A, “Radiolabeled growth hormone secretagogue” (Merck & Co., Inc., priority 1996, dated 1998).

The data set is described as follows: storage stability of the radioligand in solution. Format: physicochemical. Particulars: trace hcl; stored at -20° C. as a solution in 15% methanol/water containing a trace of hydrochloric acid; read-out: stability, loss of radiochemical purity.

Take `CC(C)(N)C(=O)N[C@H](COCc1ccccc1)C(=O)N1CCC2(CC1)CN([35S](C)(=O)=O)c1ccccc12` [[^35 S]-radioligand, [^35 S]N-[1(R)-[(1,2-Dihydro-1-methanesulfonylspiro[3H-indole-3,4'-piperdin]-1'-yl)carbonyl]-2-(phenylmethyloxy)ethyl]-2-amino-2-methylpropanamide]: the degraded at 730 h was < 0.5%.
